Laboratory results as given in US12581252B2, “Substituted pyrrolo[3,4-b]pyridines as PI3K-α inhibitors” (Relay Therapeutics, Inc., priority 2020, dated 2026).

molecular target: H1047R PIK3CA enzyme (Homo sapiens, UniProt P42336, H1047R); experiment: ADP-Glo Biochemical PIK3CA Kinase Assay
Sequence (P42336 whole entry H1047R): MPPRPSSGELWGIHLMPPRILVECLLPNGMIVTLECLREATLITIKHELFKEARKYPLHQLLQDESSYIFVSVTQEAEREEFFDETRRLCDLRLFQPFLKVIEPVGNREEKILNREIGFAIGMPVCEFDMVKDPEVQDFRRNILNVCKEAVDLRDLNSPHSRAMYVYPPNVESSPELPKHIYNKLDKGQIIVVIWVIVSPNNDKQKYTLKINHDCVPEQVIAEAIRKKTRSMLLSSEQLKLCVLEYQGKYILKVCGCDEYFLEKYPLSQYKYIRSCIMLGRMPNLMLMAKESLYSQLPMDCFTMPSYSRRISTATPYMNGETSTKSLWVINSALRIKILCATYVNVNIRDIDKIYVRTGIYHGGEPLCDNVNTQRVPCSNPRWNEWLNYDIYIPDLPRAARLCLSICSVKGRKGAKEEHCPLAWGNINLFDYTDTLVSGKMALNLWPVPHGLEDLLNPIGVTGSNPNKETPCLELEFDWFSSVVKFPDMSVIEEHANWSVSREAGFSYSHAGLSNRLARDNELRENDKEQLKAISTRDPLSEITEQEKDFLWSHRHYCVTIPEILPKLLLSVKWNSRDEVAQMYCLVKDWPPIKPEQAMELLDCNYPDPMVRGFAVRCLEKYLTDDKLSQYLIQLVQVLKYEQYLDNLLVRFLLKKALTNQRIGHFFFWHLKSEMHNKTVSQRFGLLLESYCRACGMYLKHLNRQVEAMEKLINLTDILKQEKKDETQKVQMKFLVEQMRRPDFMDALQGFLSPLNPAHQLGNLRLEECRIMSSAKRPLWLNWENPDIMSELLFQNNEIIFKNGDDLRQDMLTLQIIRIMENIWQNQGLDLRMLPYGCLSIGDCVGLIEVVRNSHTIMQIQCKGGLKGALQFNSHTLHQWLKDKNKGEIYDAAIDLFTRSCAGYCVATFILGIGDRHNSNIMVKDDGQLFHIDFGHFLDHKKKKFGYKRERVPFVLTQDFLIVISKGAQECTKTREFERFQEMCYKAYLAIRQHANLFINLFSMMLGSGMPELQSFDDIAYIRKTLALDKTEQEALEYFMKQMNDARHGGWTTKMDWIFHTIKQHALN
Sequence (P27986 whole entry partner): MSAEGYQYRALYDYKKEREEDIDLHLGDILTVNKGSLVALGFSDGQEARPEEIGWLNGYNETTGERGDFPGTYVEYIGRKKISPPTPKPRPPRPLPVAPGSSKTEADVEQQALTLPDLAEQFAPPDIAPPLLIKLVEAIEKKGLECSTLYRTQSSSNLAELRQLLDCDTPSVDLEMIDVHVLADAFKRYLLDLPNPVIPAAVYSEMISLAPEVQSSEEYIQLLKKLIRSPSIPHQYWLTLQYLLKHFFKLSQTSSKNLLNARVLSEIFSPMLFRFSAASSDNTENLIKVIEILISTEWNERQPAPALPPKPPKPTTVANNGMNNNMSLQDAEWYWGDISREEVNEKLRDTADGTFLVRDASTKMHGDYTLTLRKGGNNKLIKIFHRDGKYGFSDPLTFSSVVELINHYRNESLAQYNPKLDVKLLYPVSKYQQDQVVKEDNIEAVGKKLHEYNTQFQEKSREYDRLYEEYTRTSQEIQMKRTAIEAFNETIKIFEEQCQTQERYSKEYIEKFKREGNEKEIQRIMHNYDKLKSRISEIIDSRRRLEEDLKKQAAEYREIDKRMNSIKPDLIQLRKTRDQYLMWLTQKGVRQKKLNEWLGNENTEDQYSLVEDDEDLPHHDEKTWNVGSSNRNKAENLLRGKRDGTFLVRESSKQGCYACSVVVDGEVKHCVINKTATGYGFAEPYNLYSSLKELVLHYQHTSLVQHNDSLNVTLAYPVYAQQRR

Compound | IC50 [nM]
O=C1NC(c2cc(F)ccc2Cl)c2c(C#Cc3cc(F)cc(C(F)(F)F)c3)cccc21 (stereo not drawn) [Compound I-2187] | 10000 to 100000
COc1cc(NC(=O)c2cc(F)cc(C(F)(F)F)c2)c2c(c1)C(=O)NC2c1cc(F)ccc1Cl (stereo not drawn) [Compound I-773] | ≤ 100
CCOc1cc(C(=O)Nc2cc(Br)cc3c2C(c2cc(F)ccc2Cl)NC3=O)ccc1F (stereo not drawn) [Compound I-556] | 1000 to 10000
NC(=O)CCN(C(=O)c1cc(F)cc(C(F)(F)F)c1)c1cc(O)cc2c1C(c1cc(F)ccc1Cl)NC2=O (stereo not drawn) [Compound I-2309] | 10000 to 100000
O=C1N[C@H](c2cc(F)ccc2Cl)c2c(NC(=O)[C@H]3CCCNC3)cc(-c3ccc4ncnn4c3)cc21 (racemic) [Compound I-1848] | 10000 to 100000
O=C1NC(c2ccccc2)c2c(NC(=O)c3csc4ccccc34)cccc21 (stereo not drawn) [Compound I-8] | 100 to 500
Nc1cccc2c(=O)[nH]n(Cc3ccccc3)c12 [Compound I-103] | 10000 to 100000
CS(=O)(=O)CCCOc1cc(NC(=O)c2cc(F)cc(C(F)(F)F)c2)c2c(c1)C(=O)NC2c1cc(F)ccc1Cl (stereo not drawn) [Compound I-735] | 100 to 500
CC(C)(CN)n1cc(-c2cc(NC(=O)N3C[C@@](O)(C(F)(F)F)c4cc(F)ccc43)c3c(c2)C(=O)N[C@H]3c2cc(F)ccc2Cl)cn1 (single isomer, unassigned) [Compound I-2651] | 1000 to 10000
Cc1ccccc1C1NC(=O)c2c(C(N)=O)ccc(NC(=O)c3csc4ccccc34)c21 (stereo not drawn) [Compound I-149, 7-(Benzo[b]thiophene-3-carboxamido)-3-oxo-1-(o-tolyl)isoindoline-4-carboxamide] | ≤ 100
O=C1N[C@H](c2cc(F)ccc2Cl)c2c(NC(=O)N3CC4(CC4)c4cc(F)ccc43)cc(Br)cc21 (stereo in doubt) [Compound I-1510] | 1000 to 10000
O=C(Nc1cc(Br)cc2c1[C@H](c1cc(Cl)ccc1Cl)NC2=O)c1cc(F)cc(C(F)(F)F)c1 [Compound I-765] | ≤ 100
Cc1cnccc1-c1cc(NC(=O)c2cc(F)cc(Cl)c2)c2c(n1)C(=O)NC2c1cc(F)ccc1Cl (stereo not drawn) [Compound I-503] | ≤ 100
O=C1N[C@@H](c2cc(F)ccc2Cl)c2c(NC(=O)N3C[C@](O)(C(F)(F)F)c4cc(F)ccc43)ccnc21 (single isomer, unassigned) [Compound I-2701] | 1000 to 10000
O=C(Nc1cc(CN2CCn3cnnc3C2)cc2c1C(c1cc(F)ccc1Cl)NC2=O)c1cc(F)cc(C(F)(F)F)c1 (stereo not drawn) [Compound I-1401] | ≤ 100
Cc1ccccc1[C@@H]1NC(=O)c2nccc(NC(=O)N3CCc4ccccc43)c21 [Compound I-227] | 100 to 500
O=C1C=C(c2cc(NC(=O)c3cc(F)cc(C(F)(F)F)c3)c3c(c2)C(=O)NC3c2cc(F)ccc2Cl)CO1 (stereo not drawn) [Compound I-1587] | ≤ 100
N#CC1CN(c2cc(NC(=O)c3cc(F)cc(C(F)(F)F)c3)c3c(n2)C(=O)NC3c2cc(F)ccc2Cl)C1 (stereo not drawn) [Compound I-443] | ≤ 100
CS(=O)(=O)Cc1cc(NC(=O)c2cc(F)cc(C(F)(F)F)c2)c2c(n1)C(=O)NC2c1cc(F)ccc1Cl (stereo not drawn) [Compound I-1644] | ≤ 100
O=C(Nc1cc(N2CCOc3ccccc32)cc2c1C(c1cc(F)ccc1Cl)NC2=O)c1cc(F)cc(C(F)(F)F)c1 (stereo not drawn) [Compound I-1189] | ≤ 100
O=C1NC(c2cc(F)ccc2Cl)c2c(NC(=O)[C@@H]3CC[C@@H](O)C3)cc(Br)cc21 (single isomer, unassigned) [Compound I-1976] | 10000 to 100000
O=C(Nc1cc(CS(=O)(=O)Cc2ccncc2)cc2c1C(c1cc(F)ccc1Cl)NC2=O)c1cc(F)cc(C(F)(F)F)c1 (stereo not drawn) [Compound I-1470] | ≤ 100
NC(=O)c1cc(NC(=O)c2cc(F)cc(C(F)(F)F)c2)c2c(c1)C(=O)NC2c1cc(F)ccc1Cl (stereo not drawn) [Compound I-555] | ≤ 100
O=C(Nc1cccc2c(=O)[nH]n(-c3cc(F)ccc3Cl)c12)c1cc(F)cc(C(F)(F)F)c1 [Compound I-323] | 1000 to 10000
Cc1ccccc1C1NC(=O)c2cccc(NC(=O)c3n[nH]cc3-c3ccccc3)c21 (stereo not drawn) [Compound I-412] | 10000 to 100000
Nc1cc(-c2cc(NC(=O)c3cc(F)cc(C(F)(F)F)c3)c3c(c2)C(=O)NC3c2cc(F)ccc2Cl)ncn1 (stereo not drawn) [Compound I-1089] | ≤ 100

The next lines start with the values.

IC50 [nM] | Compound
1000 to 10000 | CNc1cc(NC(=O)N2C[C@@](O)(C(F)(F)F)c3cc(F)ccc32)c2c(n1)C(=O)N[C@@H]2c1cc(F)ccc1Cl (single isomer, unassigned) [Compound I-2645]
1000 to 10000 | O=C(Nc1cccc2c1C(c1cc(O)ccc1Cl)NC2=O)c1cc(F)cc(C(F)(F)F)c1 (stereo not drawn) [Compound I-428]
1000 to 10000 | N#C[C@H]1C[C@H](Oc2cc(NC(=O)c3cc(F)cc(C(F)(F)F)c3)c3c(c2)C(=O)N[C@@H]3c2cc(F)ccc2Cl)C1 (stereo in doubt) [Compound I-1304]
10000 to 100000 | O=C1NC(c2cc(F)ccc2Cl)c2c(NC(=O)C3(c4cccc(F)c4)CCCC3)cc(Br)cc21 (stereo not drawn) [Compound I-1638]
1000 to 10000 | O=C(Nc1cccc2c1C(C1CCNCC1)NC2=O)c1cc(F)cc(C(F)(F)F)c1 (racemic) [Compound I-1770]
10000 to 100000 | O=C1NC(c2cc(F)ccc2Cl)c2c(Nc3cn[nH]c3)cc(Br)cc21 (stereo not drawn) [Compound I-2056]
10000 to 100000 | CC(C)(C(=O)Nc1cc(Br)cc2c1C(c1cc(F)ccc1Cl)NC2=O)C(F)(F)F (stereo not drawn) [Compound I-1620]
10000 to 100000 | O=C1NC(c2cc(F)ccc2Cl)c2c(NC(=O)C3(c4cccc(Cl)c4)CCCC3)cc(Br)cc21 (stereo not drawn) [Compound I-1637]
≤ 100 | O=C(Nc1cc(-c2cn[nH]c2)cc2c1[C@@H](c1cc(F)ccc1Cl)NC2=O)c1cc(F)cc(C(F)(F)F)c1 [Compound I-1079]
1000 to 10000 | O=C1NC(c2ncccc2Cl)c2c(NC(=O)c3csc4ccccc34)cccc21 (stereo not drawn) [Compound I-57]
1000 to 10000 | NCCc1cc(NC(=O)N2C[C@@](O)(C(F)(F)F)c3cc(F)ccc32)c2c(c1)C(=O)N[C@@H]2c1cc(F)ccc1Cl (single isomer, unassigned) [Compound I-2583]
1000 to 10000 | O=C1N[C@H](c2cc(F)ccc2Cl)c2c(NC(=O)N3C[C@](O)(C(F)(F)F)c4cc(F)ccc43)cc(-n3ncccc3=O)cc21 (single isomer, unassigned) [Compound I-2535]
10000 to 100000 | O=C(Nc1cccc2c1C(C1CCCC(O)C1)NC2=O)c1cc(F)cc(C(F)(F)F)c1 (mixture of isomers) [Compound I-2226]
500 to 1000 | Cc1nn(C)c(C)c1-c1cc(NC(=O)c2cc(F)cc(Cl)c2)c2c(n1)C(=O)NC2c1cc(F)ccc1Cl (stereo not drawn) [Compound I-410]
1000 to 10000 | C[C@H](c1cc(NC(=O)c2cc(F)cc(C(F)(F)F)c2)c2c(c1)C(=O)N[C@@H]2c1cc(F)ccc1Cl)S(C)(=O)=O (single isomer, unassigned) [Compound I-1643]
≤ 100 | O=C(Nc1cc(-c2ccc(=O)n(C3CC3)c2)cc2c1C(c1cc(F)ccc1Cl)NC2=O)c1cc(F)cc(C(F)(F)F)c1 (stereo not drawn) [Compound I-700]
≤ 100 | O=C(Nc1cc(Br)cc2c1C(c1cc(F)ccc1Cl)NC2=O)c1cc(Cl)cc(Cl)c1 (stereo not drawn) [Compound I-521]
10000 to 100000 | O=C1NCc2c(NC(=O)N3CCCC[C@@H]3Cc3ccccc3)cccc21 (stereo in doubt) [Compound I-989]
500 to 1000 | Cc1ccccc1[C@H]1NC(=O)c2cccc(NC(=O)c3csc4ccccc34)c21 [Compound I-4]

IC50 [nM] | Compound
10000 to 100000 | CC(=O)N[C@H]1CC[C@@H](C(=O)Nc2cc(-c3ccc4ncnn4c3)cc3c2C(c2cc(F)ccc2Cl)NC3=O)CC1 (mixture of isomers) [Compound I-1849]
≤ 100 | O=C1NC(c2cc(F)ccc2Cl)c2c(NC(=O)N3CCc4cc(F)ccc43)cc(Br)cc21 (stereo not drawn) [Compound I-1270]
≤ 100 | CC1(Cc2cc(NC(=O)c3cc(F)cc(C(F)(F)F)c3)c3c(c2)C(=O)N[C@H]3c2cc(F)ccc2Cl)COC1 [Compound I-818]
10000 to 100000 | O=C(Nc1cc(Br)cc2c1[C@H](c1cc(F)ccc1Cl)NC2=O)N[C@]1(CC(F)(F)F)CCCOC1 (racemic) [Compound I-1949]
10000 to 100000 | CC(C)(O)c1cc(F)cc(C(=O)Nc2cccc3c2C(c2cc(F)ccc2Cl)NC3=O)c1 (stereo not drawn) [Compound I-627]
≤ 100 | CS(=O)(=O)Cc1cc(NC(=O)c2cc(F)cc(C(F)(F)F)c2)c2c(c1)C(=O)NC2c1cc(F)ccc1Cl (stereo not drawn) [Compound I-310]
100 to 500 | O=C(Nc1cc(C(O)CN2CC(F)(F)C2)cc2c1C(c1cc(F)ccc1Cl)NC2=O)c1cc(F)cc(Cl)c1 (stereo not drawn) [Compound I-334]
1000 to 10000 | Cc1ccccc1C1NC(=O)c2cccc(NC3(c4cc(F)cc(C(F)(F)F)c4)COC3)c21 (stereo not drawn) [Compound I-492]
500 to 1000 | O=C1N[C@H](c2cc(F)ccc2Cl)c2c(NC(=O)N3C[C@@](O)(C(F)F)c4cc(F)ccc43)cccc21 (single isomer, unassigned) [Compound I-2556]
≤ 100 | CC(C)Oc1cc(NC(=O)c2cc(F)cc(C(F)(F)F)c2)c2c(c1)C(=O)NC2c1cc(F)ccc1Cl (stereo not drawn) [Compound I-1253]
≤ 100 | CN1C[C@H](COc2cc(NC(=O)c3cc(F)cc(C(F)(F)F)c3)c3c(c2)C(=O)N[C@@H]3c2cc(F)ccc2Cl)CC1=O (single isomer, unassigned) [Compound I-1521]
≤ 100 | C[S@](=O)(Cc1cc(NC(=O)c2cc(F)cc(C(F)(F)F)c2)c2c(c1)C(=O)N[C@H]2c1cc(F)ccc1Cl)=NC#N (single isomer, unassigned) [Compound I-1564]
500 to 1000 | O=C(Nc1cc(Br)cc2c1C(c1cc(F)ccc1Cl)NC2=O)c1ccc(F)c(Cl)c1 (stereo not drawn) [Compound I-565]
10000 to 100000 | CNc1cc(NC(=O)N2C[C@@](O)(C(F)F)c3cc(F)ccc32)c2c(c1)C(=O)N[C@H]2c1cc(F)ccc1Cl (single isomer, unassigned) [Compound I-2680]
10000 to 100000 | CC(C)(O)c1cc(NC(=O)N2CCc3ccccc32)c2c(c1)C(=O)N[C@@H]2c1cc(F)ccc1Cl [Compound I-714]
10000 to 100000 | O=C1NC(c2cc(F)ccc2Cl)c2c(NC(=O)C3COCCN3)cc(-c3ccc4ncnn4c3)cc21 (mixture of isomers) [Compound I-1991]
≤ 100 | COc1cncc(-c2cc(NC(=O)c3cc(F)cc(C(F)(F)F)c3)c3c(c2)C(=O)NC3c2cc(F)ccc2Cl)c1 (stereo not drawn) [Compound I-854]
≤ 100 | O=C(Nc1cc(-c2cc3ncnn3cc2F)cc2c1[C@H](c1cc(F)ccc1Cl)NC2=O)c1cc(F)cc(C(F)(F)F)c1 [Compound I-1868]
